In paper PMC8508980, “Design, Synthesis and Anticancer Profile of New 4-(1H-benzo[d]imidazol-1-yl)pyrimidin-2-amine-Linked Sulfonamide Derivatives with V600EBRAF Inhibitory Effect” (International Journal of Molecular Sciences, 2021):
Where two headings read alike, the source gives them in different places.

Key:
V600EBRAF = target: T1, V600EBRAF (Homo sapiens, UniProt P15056, V600E); assay: Reaction Biology kinase HotSpot enzyme assay; type: biochemical; details: 1 µM ATP; for IC50: mean ± S.D. of two separate experiments; for % Inhibition at 1 µM over V600EBRAF / inhibition at 1 µM: single dose 1 µM, mean ± S.D. of two experiments; for inhibition at 1 µM: read-out: % Inhibition at 1 µM over V600EBRAF
T1 construct: purchased Reaction Biology Corp. (Kinase HotSpot service)
Experimental: Reaction Biology Corp. Kinase HotSpotTM service
(§1) Proﬁler Express for IC50 measurement. Assay protocol: In a ﬁnal reaction volume of 25 μL, kinase (5–10 mU) is incubated with 25 mM Tris pH 7.5, 0.02 mM EGTA, 0.66 mg/mL myelin basic protein, 10 mM magnesium acetate and [γ33P-ATP] (speciﬁc activity approx. 500 cpm/pmol, concentration as required). The reaction is initiated by the addition of the Mg-ATP mix. After incubation for 40 min at room temperature, the reaction is stopped by the addition of 5 μL of a 3% phosphoric acid solution. 10 μL of the reaction is then spotted onto a P30 ﬁltermat, and washed three times for 5 min in 75 mM phosphoric acid and once in methanol prior to drying and scintillation counting.

BRAF (wild-type) = target: T2, BRAF (wild-type) (Homo sapiens, UniProt P15056); assay: Reaction Biology kinase HotSpot enzyme assay; type: biochemical; details: 1 µM ATP; mean ± S.D. of two separate experiments
T2 construct: purchased Reaction Biology Corp. (Kinase HotSpot service)
Experimental: The enzymatic assays were performed in Reaction Biology Corp. using the standard protocol at 1 µM ATP and threefold dilution factor (detailed procedure is found in the Supplementary Information page 52 s).
as §1, with “Reaction Biology Corp. Kinase HotSpotTM service http://www.reactionbiology.com was used for screening of compounds IC50 Proﬁler” for “Proﬁler”

CRAF = CRAF (Homo sapiens, UniProt P04049); assay: Reaction Biology kinase HotSpot enzyme assay; type: biochemical; details: 1 µM ATP, mean ± S.D. of two separate experiments
Experimental: as §1, with “Reaction Biology Corp. Kinase HotSpotTM service http://www.reactionbiology.com was used for screening of compounds IC50 Proﬁler” for “Proﬁler”

A375 cells = assay: Antiproliferative MTT assay; type: cell-based; details: Homo sapiens, A-375, 48 h, mean ± S.D. of two experiments
Experimental: (§2) The effect of final target compounds over A375 and SK-MEL-5 was performed using reported procedures (detailed procedure is located in the Supplementary Information page 51s). […]
(§3) Evaluation of the Antiproliferative Activity Against A375 and SK-MEL-5
(§4) A375 and SK-MEL-5 cells were purchased from American Type Culture Collection (ATCC, Ro ckv ille, MD, USA) and maintained in Dulbecco’s modified eagle medium (DMEM, Welgene, Daegu, Republic of Korea) supplemented with 10% fetal bovine serum (FBS, Welgene, Daegu, Republic of Korea) and 1% penicillin/streptomycin (Welgene, Daegu, Republic of Korea) in a hu midified atmo sphere with 5% CO2 at 37 °C. Both cells were taken from culture substrate with 0.05% trypsin-0.02% EDTA and plated at a density of 5 × 10^3 cells/well in 96 well plates and then incubated at 37 °C fo r 24 h in a hu midified atmo sphere with 5% CO2 prior to treatment with various concentrations (3-fold serial dilution, 12 points) of the tested compounds. The cells were incubated for 48 h after treatment with the test compounds. The cell viability was assessed by the conventional 3-(4,5-dimethylthiazol-2-yl)-2,5-diphenyltetrazolium bromide (MTT) reduction assay. MTT assays were carried out with CellTiter 96® (Promega) according to the manufacturer’s instructions. The absorbance at 590 nm was recorded using EnVision 2103 (Perkin Elmer; Bo ston , MA, USA). The IC50 values were calculated using GraphPad Prism 4.0

SK-MEL-5 cells = assay: Antiproliferative MTT assay; type: cell-based; details: Homo sapiens, 48 h, mean ± S.D. of two experiments
Experimental: as §2, §3, §4

T2 sequence (P15056 whole entry): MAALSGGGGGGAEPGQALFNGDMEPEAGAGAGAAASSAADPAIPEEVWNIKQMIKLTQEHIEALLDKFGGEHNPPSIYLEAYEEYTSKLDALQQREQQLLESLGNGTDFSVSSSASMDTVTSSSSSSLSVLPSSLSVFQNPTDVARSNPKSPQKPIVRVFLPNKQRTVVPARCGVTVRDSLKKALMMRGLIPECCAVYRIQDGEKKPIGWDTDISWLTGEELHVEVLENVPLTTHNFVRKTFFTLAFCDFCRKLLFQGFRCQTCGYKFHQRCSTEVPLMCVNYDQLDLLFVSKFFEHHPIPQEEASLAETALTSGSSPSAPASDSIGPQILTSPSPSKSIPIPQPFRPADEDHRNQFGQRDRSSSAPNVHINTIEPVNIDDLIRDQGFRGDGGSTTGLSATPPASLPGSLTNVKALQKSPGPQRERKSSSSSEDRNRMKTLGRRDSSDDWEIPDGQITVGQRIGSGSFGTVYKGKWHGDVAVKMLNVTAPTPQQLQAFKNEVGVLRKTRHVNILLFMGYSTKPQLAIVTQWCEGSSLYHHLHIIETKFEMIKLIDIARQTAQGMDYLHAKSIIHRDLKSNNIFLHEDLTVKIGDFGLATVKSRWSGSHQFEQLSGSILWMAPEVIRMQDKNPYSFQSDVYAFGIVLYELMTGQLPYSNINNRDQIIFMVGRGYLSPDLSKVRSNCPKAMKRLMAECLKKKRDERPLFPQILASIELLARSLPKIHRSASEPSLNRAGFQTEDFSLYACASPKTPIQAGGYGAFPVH
T1 sequence (P15056 whole entry V600E): as the sequence (P15056 whole entry) above, with V600E counted along it
Chain of CRAF (P04049 whole entry): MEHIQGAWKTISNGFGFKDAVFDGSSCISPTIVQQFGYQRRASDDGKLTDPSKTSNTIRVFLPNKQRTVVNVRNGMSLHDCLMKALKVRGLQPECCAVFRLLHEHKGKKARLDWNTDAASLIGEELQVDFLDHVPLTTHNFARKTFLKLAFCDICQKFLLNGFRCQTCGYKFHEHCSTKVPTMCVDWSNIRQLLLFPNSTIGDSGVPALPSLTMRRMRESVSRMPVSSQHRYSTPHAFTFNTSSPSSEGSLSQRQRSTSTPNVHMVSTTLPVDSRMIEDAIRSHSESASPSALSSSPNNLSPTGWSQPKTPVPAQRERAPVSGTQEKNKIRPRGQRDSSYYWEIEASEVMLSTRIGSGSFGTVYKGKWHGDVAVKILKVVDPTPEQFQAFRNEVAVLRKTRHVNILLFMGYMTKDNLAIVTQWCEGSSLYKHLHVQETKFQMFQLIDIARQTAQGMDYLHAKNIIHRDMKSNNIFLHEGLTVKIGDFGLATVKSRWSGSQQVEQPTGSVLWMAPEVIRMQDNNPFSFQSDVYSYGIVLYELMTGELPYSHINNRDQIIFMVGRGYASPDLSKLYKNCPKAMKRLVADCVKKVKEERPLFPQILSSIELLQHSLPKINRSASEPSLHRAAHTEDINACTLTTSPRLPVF

SMILES	IC50 (V600EBRAF) [µM]	% Inhibition at 1 µM over V600EBRAF (V600EBRAF) [%]	inhibition at 1 µM (V600EBRAF) [%]	IC50 (BRAF (wild-type)) [µM]	IC50 (CRAF; read-out: IC50 CRAF) [µM]	IC50 (A375 cells) [µM]	IC50 (SK-MEL-5 cells) [µM]	IC50 (CRAF; IC50 CRAF) [µM]
O=S(=O)(NCCCNc1nccc(-n2cnc3ccccc32)n1)c1ccc(Br)cc1 [12k, N-(3-((4-(1H-benzo [d]imidazol-1-yl)pyrimidin-2-yl)amino)propyl)-4-bromo benzenesulfonamide]	0.81 ± 0.056	73.81 ± 0.75	74	1.53 ± 0.11	0.99 ± 0.085	12 ± 0.47	13.5 ± 0.39	
O=S(=O)(NCCCNc1nccc(-n2cnc3ccccc32)n1)c1ccccc1 [12h, N-(3-((4-(1H-benzo [d]imidazol-1-yl)pyrimidin-2-yl)amino)propyl)benzenesulfonamide]	1.12 ± 0.098	49.54 ± 0.61	50	2.32 ± 0.11	2.14 ± 0.078	9.26 ± 0.16	11.3 ± 0.29	
Cc1ccc(S(=O)(=O)NCCNc2nccc(-n3cnc4ccccc43)n2)cc1 [12g, N-(2-((4-(1H-benzo [d]imidazol-1-yl)pyrimidin-2-yl)amino)ethyl)-4-methyl benzenesulfonamide]	0.79 ± 0.042	82.11 ± 0.32	82	1.53 ± 0.26	1.48 ± 0.099	7.22 ± 0.23	8.25 ± 0.12	
O=S(=O)(NCCCNc1nccc(-n2cnc3ccccc32)n1)c1cccc2ccccc12 [12n, N-(3-((4-(1H-benzo [d]imidazol-1-yl)pyrimidin-2-yl)amino)propyl)naphthalene-1-sulfonamide]	1.28 ± 0.144	41.27 ± 0.46	41	3.54 ± 0.175		16.9 ± 0.81	17.9 ± 0.62	1.78 ± 0.156
O=S(=O)(NCCCNc1nccc(-n2cnc3ccccc32)n1)c1ccc(C(F)(F)F)cc1 [12l, N-(3-((4-(1H-benzo [d]imidazol-1-yl)pyrimidin-2-yl)amino)propyl)-4-(trifluoromethyl) benzenesulfonamide]	0.49 ± 0.061	98.75 ± 0.58	99	0.94 ± 0.065	0.84 ± 0.076	1.85 ± 0.11	2.02 ± 0.09	
O=S(=O)(NCCNc1nccc(-n2cnc3ccccc32)n1)c1ccccc1 [12a, N-(2-((4-(1H-benzo [d]imidazol-1-yl)pyrimidin-2-yl)amino)ethyl)benzenesulfonamide]	1.91 ± 0.14	30.35 ± 0.41	30	3.25 ± 0.45	2.98 ± 0.21	12.8 ± 0.41	20.4 ± 0.86	
COc1ccc(S(=O)(=O)NCCCNc2nccc(-n3cnc4ccccc43)n2)cc1 [12m, N-(3-((4-(1H-benzo [d]imidazol-1-yl)pyrimidin-2-yl)amino)propyl)-4-methoxy benzenesulfonamide]	0.82 ± 0.048	51.26 ± 0.29	51	1.46 ± 0.086	0.96 ± 0.079	13.1 ± 0.27	14.6 ± 0.71	
O=S(=O)(NCCNc1nccc(-n2cnc3ccccc32)n1)c1ccc(Br)cc1 [12d, N-(2-((4-(1H-benzo [d]imidazol-1-yl)pyrimidin-2-yl)amino)ethyl)-4-bromobenzenesulfonamide]	0.91 ± 0.019	69.28 ± 0.51	69	1.79 ± 0.15	2.1 ± 0.18	11.8 ± 0.71	19.7 ± 0.51	
COc1ccc(S(=O)(=O)NCCNc2nccc(-n3cnc4ccccc43)n2)cc1 [12f, N-(2-((4-(1H-benzo [d]imidazol-1-yl)pyrimidin-2-yl)amino)ethyl)-4-methoxy benzenesulfonamide]	0.98 ± 0.02	55.21 ± 0.52	55	1.98 ± 0.12	1.67 ± 0.21	12.6 ± 0.44	18.7 ± 0.69	
O=S(=O)(NCCNc1nccc(-n2cnc3ccccc32)n1)c1ccc(Cl)cc1 [12c, N-(2-((4-(1H-benzo [d]imidazol-1-yl)pyrimidin-2-yl)amino)ethyl)-4-chlorobenzenesulfonamide]	0.82 ± 0.024	70.55 ± 0.71	71	1.38 ± 0.17	1.49 ± 0.23	11 ± 0.36	17.6 ± 0.49	
O=S(=O)(NCCCNc1nccc(-n2cnc3ccccc32)n1)c1ccc(Cl)cc1 [12j, N-(3-((4-(1H-benzo [d]imidazol-1-yl)pyrimidin-2-yl)amino)propyl)-4-chloro benzenesulfonamide]	0.79 ± 0.051	88.14 ± 0.19	88	1.13 ± 0.099	1.02 ± 0.077	10.4 ± 0.24	12.9 ± 0.72	
O=S(=O)(NCCNc1nccc(-n2cnc3ccccc32)n1)c1ccc(C(F)(F)F)cc1 [12e, N-(2-((4-(1H-benzo [d]imidazol-1-yl)pyrimidin-2-yl)amino)ethyl)-4-(trifluoromethyl)benzenesulfonamide]	0.62 ± 0.031	98.24 ± 0.44	98	1.25 ± 0.095	1.14 ± 0.088	2.89 ± 0.14	6.54 ± 0.18	
O=S(=O)(NCCNc1nccc(-n2cnc3ccccc32)n1)c1ccc(F)cc1 [12b, N-(2-((4-(1H-benzo [d]imidazol-1-yl)pyrimidin-2-yl)amino)ethyl)-4-fluorobenzenesulfonamide]	0.74 ± 0.051	75.17 ± 0.27	75	1.51 ± 0.22	1.34 ± 0.19	10.5 ± 0.22	15.6 ± 0.37	
O=S(=O)(NCCCNc1nccc(-n2cnc3ccccc32)n1)c1ccc(F)cc1 [12i, N-(3-((4-(1H-benzo [d]imidazol-1-yl)pyrimidin-2-yl)amino)propyl)-4-fluorobenzenesulfonamide]	0.53 ± 0.022	97.81 ± 0.82	98	1.33 ± 0.081	0.98 ± 0.044	1.95 ± 0.13	2.36 ± 0.21	
